Assay: percentage initial hypochlorite remaining as a function of time after mixing oxidant with reductant
Type: physicochemical
Conditions: any pH below 12
Source text: The amount of available halogen oxidant in the composition may be determined by placing samples of the composition into about 50 milliliters of distilled water, followed by addition of about 10 milliliters of a 10 wt % solution of potassium iodide and addition of about 10 milliliters of a 10 volume % solution of sulfuric acid, the resulting mixture being well stirred. The resulting yellow to brown solution, whose color is the result of oxidation of free iodine ion (I′) to molecular iodine (I2), is then volumetrically titrated to an essentially colorless endpoint by addition of standardized 0.1 Molar sodium thiosulfate (Na2S2O3) titrant. […] Stability results are then expressed by repeated assays over time using identically prepared samples resulting from the same composition, normalized to 100 percent representative of the starting available chlorine measured initially.
Alternatively, at lower concentrations of hypochlorite, generally below about 2,000 ppm or 0.2 wt %, spectroscopic measurement of the absorption of aqueous solutions may be used to monitor the concentration, and resulting changes, of the hypochlorous acid species in solution. […] By use of controls, the relative level of hypochlorite can then be monitored and calculated by measuring absorbance of solutions by means of a suitable instrument, such as a spectrophotometer. […]

- reaction of reductant with hypochlorite (quenching rate): reacts almost instantly
SMILES: O=C(O)CN(CCN(CC(=O)O)CC(=O)O)CC(=O)O [EDTA, ethylene diamine tetra-acetic acid]
